Results on five compounds are retold here after ChEMBL document CHEMBL4364241, “Developments in the anticancer activity of structurally modified curcumin: An up-to-date review” (Eur J Med Chem, 2019).

For test [1], the target named is Tyrosine-protein kinase ABL1 (Homo sapiens, UniProt P00519, Y253F). Put plainly: Inhibition of ABL Y253F mutant (unknown origin).
Test [2] concerns the target Tyrosine-protein kinase ABL1 (Homo sapiens, UniProt P00519, T315I). Put plainly: Inhibition of ABL T315I mutant (unknown origin).
Test [3] has as its target Tyrosine-protein kinase ABL1 (Homo sapiens, UniProt P00519). Put plainly: Inhibition of Wild type ABL (unknown origin).
The target in test [4] is Tyrosine-protein kinase ABL1 (Homo sapiens, UniProt P00519, Q252H). In words: Inhibition of ABL Q252H mutant (unknown origin).
Another test concerns MIA PaCa-2. In words: Cytotoxicity against human MIAPaCa2 cells by MTT assay. The format is functional, cell-based. (Tetrazolium dyes change colour on reduction, which living cells bring about.)
The next test has as its system PANC-1. Put plainly: Cytotoxicity against human PANC1 cells by MTT assay. The format is functional, cell-based.
Test [5] relates to PC-3. Put plainly: Cytotoxicity against human PC3 cells by MTT assay. The format is functional, cell-based.
A further test relates to NCI-H460. Put plainly: Cytotoxicity against human H460 cells by MTT assay. The format is functional, cell-based.
Another test has as its system MCF7. Put plainly: Cytotoxicity against human MCF7 cells by MTT assay. The format is functional, cell-based.
Another test deals with A549. Put plainly: Cytotoxicity against human A549 Cells by MTT assay. It counts as functional, cell-based.
The subject of test [6] is HT-29. Put plainly: Cytotoxicity against human HT-29 cells by MTT assay. The format is functional, cell-based.
A further test relates to HepG2. In words: Cytotoxicity against human HepG2 Cells. It counts as functional, cell-based.
In another test the test system is K562. In words: Antiproliferative activity against human K562 Cells. The format is functional, cell-based.
Another test concerns L02. In words: Cytotoxicity against human LO2 Cells. The format is functional, cell-based.
The next test relates to THP-1. In words: Cytotoxicity against human THP1 Cells. It counts as functional, cell-based.
The test system of a further test is HeLa. Put plainly: Cytotoxicity against human HeLa Cells. The format is functional, cell-based.
For a further test, the system named is NCI-H1299. In words: Cytotoxicity against human H1299 cells. The format is functional, cell-based.
For another test, the system named is BXPC-3. Put plainly: Cytotoxicity against human BxPC3 cells. The format is functional, cell-based.
Test [7] concerns HT-29. Put plainly: Cytotoxicity against human HT-29 Cells. The format is functional, cell-based.
Test [8] has as its system PC-3. In words: Cytotoxicity against human PC3 cells. It counts as functional, cell-based.
The subject of the next test is RWPE-1. Put plainly: Cytotoxicity against human RWPE1 cells. The format is functional, cell-based.
A short description of test [9]: Antiproliferative activity against human K562/G01 cells. The format is functional, cell-based.

A word on the IC50: it is the concentration that gives 50% inhibition. Low readings indicate greater potency, high ones weaker potency. For the compound `COc1cc(C=C(C(=O)/C=C/c2ccc(O)c(OC)c2)C(=O)/C=C/c2ccc(O)c(OC)c2)ccc1O`, the IC50 in test [1] was found to be 79.8 nM; in [2], 67.3 nM; in test [3] it was 83.3 nM; in test [4], 185 nM.

For `CN1CC(Cc2ccc(N(C)C)cc2[N+](=O)[O-])C(=NO)C(Cc2ccc(N(C)C)cc2[N+](=O)[O-])C1` (stereo not drawn), the half-maximal inhibitory concentration (IC50) with MIA PaCa-2 was determined as 70 nM; in the test with PANC-1, 100 nM; in the test with PC-3 [5], 80 nM; in the test on NCI-H460, 80 nM; in the test with MCF7, 90 nM; in the test with A549, 90 nM. For the same compound, in the test on HT-29 [6], the IC50 came to 50 nM.

For `C/C(=C/C(=O)c1ccccc1)Nc1cccc(/C=C2\CN(C)C/C(=C\c3cccc(N/C(C)=C/C(=O)c4ccccc4)c3)C2=O)c1`, the IC50 was 5520 nM in the test with HepG2; 4800 nM in the test on K562; 13100 nM in the test with L02; 1170 nM in the test with THP-1; > 10000 nM in the test on HeLa.

Regarding `COc1cc(/C=C2/C(=O)/C(=C/c3cc(OC)c(OC)c(OC)c3)c3ccccc32)cc(OC)c1OC`, the IC50 was determined as 950 nM in the test with NCI-H1299; 990 nM in the test with BXPC-3; 980 nM in the test with HT-29 [7]; 640 nM in the test on PC-3 [8]; 9120 nM in the test with RWPE-1.

As for `COc1cc(/C=C/C(=O)C(=Cc2ccncc2)C(=O)/C=C/c2ccc(O)c(OC)c2)ccc1O`, the IC50 in test [9] came out at 600 nM; in the test with K562, 1100 nM.
